What was measured:
mice with NEC [1] = test: Mouse NEC model, ileal inflammation marker mRNA (qRT-PCR); format: in vivo; conditions: neonatal mice, oral gavage 10 mg per kg body weight per day during NEC induction; FIG. 3-7
Text: Mouse NEC model. Experimental NEC was induced in a well validated and reproducible model in 7-day-old mice of either gender, which were randomly divided into control and test groups, by gavage feeding newborn mice with formula containing Similac Advance infant formula (Abbott Nutrition): Esbilac (PetAg) canine milk replacer, 2:1 ratio, which was supplemented with enteric bacteria made from a stock created from a specimen obtained from an infant with surgical NEC five times per day. Additionally, the mice were subjected to hypoxia (5% O2-95% N2) for 10 min in a hypoxia chamber (Billups-Rothenberg) twice daily for 4 days. The C34 analogues were administered by oral gavage during the induction of NEC at the dose of 10 mg per kg body weight per day. […]
RNA isolation, cDNA synthesis and qPCR. Total RNA was isolated using the RNeasy mini kit (Qiagen) and complementary DNA was synthesized from 0.5 μg RNA using QuantiTect Reverse Transcription kit (Qiagen) following the manufacturer's protocols. The mRNA quantification was performed on the Bio-Rad CFX96 Real-Time System (Bio-Rad) using iTaq™ universal SYBR® Green supermix (Bio-Rad) and Bio-Rad CFX Manager 3.1 software was used to collect data from qRT-PCR. […]
Statistical Analysis. Transcript levels for inflammatory biomarkers were assessed by performing a one-way ANOVA statistical analysis followed by multiple comparison. […]

mice with NEC [2] = test: Mouse NEC model, H&E staining of ileal tissue sections; format: in vivo; conditions: oral gavage 10 mg per kg body weight per day, FIG. 13
Text: Mouse NEC model. Experimental NEC was induced in a well validated and reproducible model in 7-day-old mice of either gender, which were randomly divided into control and test groups, by gavage feeding newborn mice with formula containing Similac Advance infant formula (Abbott Nutrition): Esbilac (PetAg) canine milk replacer, 2:1 ratio, which was supplemented with enteric bacteria made from a stock created from a specimen obtained from an infant with surgical NEC five times per day. Additionally, the mice were subjected to hypoxia (5% O2-95% N2) for 10 min in a hypoxia chamber (Billups-Rothenberg) twice daily for 4 days. The C34 analogues were administered by oral gavage during the induction of NEC at the dose of 10 mg per kg body weight per day. Age-matched breast milk-fed mouse pups were used as non-NEC controls. The relative mRNA expression levels of Toll-like receptor 4 (Tlr4) (FIG. 3), interleukin 6 (Il6) (FIG. 4), interleukin 1 beta (Il1b) (FIG. 5), tumor necrosis factor (Tnf) (FIG. 6) and lipocalin 2 (Lcn2) (FIG. 7) were shown.
Hematoxylin and eosin (H&E) staining. […]

CC(C)CC1OC(COC(=O)CC(C)(C)C)C(OC(=O)CC(C)(C)C)C(OC(=O)CC(C)(C)C)C1OC(=O)CC(C)(C)C (centres unmarked) [Compound C281]
necrotizing enterocolitis inflammation markers Tlr4, Il6, Il1b, Tnf, Lcn2 (relative mRNA expression in ileum) (mice with NEC [1]): robust response | tissue architecture of the intestinal lining (H&E) (mice with NEC [2]): preserve the tissue architecture of the intestinal lining

Source: patent US20250154188A1, “C-GLYCOSIDES AS ANTI-INFLAMMATORY AGENTS” (UNIVERSITY OF PITTSBURGH - OF THE COMMONWEALTH SYSTEM OF …, priority 2022, published 2025)
